Reference: US8912146B2, “Derivatives of APF and methods of use” (University of Maryland, Baltimore, priority 2008, dated 2014)
Entries after “also recorded” stand apart in the source; their conditions may differ.

Columns and labels:
Type in all cases: cell-based, human
[1] = system: bladder epithelial cells from IC/PBS patients; test: Stimulation of IC/PBS cell proliferation (3H-thymidine incorporation)
Experimental: (§1) IC/PBS cells were incubated with varying concentrations of two derivatives shown to inhibit APF activity in normal bladder cells—GalGalNAc-TV(D-pipecolic acid) AAVVVA (SEQ ID NO:14) and GalGalNAc-TV (D-proline)AAVVVA (SEQ ID NO:27). Cell proliferation was determined by ^3H-thymidine incorporation; gene expression by quantitative RT-PCR; specific protein expression by Western blot analysis; tight junction formation by confocal immunofluorescence microscopy; and paracellular permeability by ^14C-mannitol and ^3H-inulin flux between confluent cells on Transwell plates. Significance of the difference in mean values between groups was determined by an analysis of variance for each assay.
as §1, with “cells -GalGalNAc-TV-(D-pipecolic acid)-AAVVVA” for “cells—GalGalNAc-TV(D-pipecolic acid) AAVVVA”, “NO:7)” for “NO:14)”, “GalGalNAc-TV-(D-proline)-AAVVVA” for “GalGalNAc-TV (D-proline)AAVVVA”, “RT-PCR;” for “RT-PCR; specific protein expression by Western blot analysis;”
IC/PBS cells produce APF and as a result have a profound decrease in cell proliferation. […]
Cystoscopy was performed under general anesthesia, and 4-mm^2 pieces of transitional epithelium with submucosal bladder tissue were obtained from IC/PBS patients and controls for the growth of primary bladder epithelial cells, as previously described (Keay et al., 2000; Keay et al., 2001; Keay et al., 2004; Keay et al., 2003). […]
Cell proliferation was measured by ^3H-thymidine incorporation into explanted normal human bladder epithelial cells, as previously described (Keay et al., 2000; Keay et al., 2001; Keay et al., 2004; Keay et al., 2003; Saitoh et al., 2001). […]

[2] = system: tight junction proteins in IC/PBS cells; test: Immunofluorescence confocal microscopy of tight junction proteins in IC/PBS cells; conditions: IC/PBS cell explants, 9 days
Experimental: For immunofluorescence, cells were fixed using ethanol/acetone (1:1) for 15 minutes at room temperature, washed 3 times with PBS and incubated with fluorescein isothiocyanate (FITC) labeled mouse monoclonal anti-ZO-1 (5 μg/ml); or unlabeled mouse monoclonal anti-occludin (5 μg/ml) or anti-claudin 4 (3 μg/ml); or unlabeled rabbit polyclonal anti-claudin 1 (3 μg/ml), anti-claudin 8 (8 μg/ml), or anti-claudin 12 (5 μg/ml from Zymed, South San Francisco, Calif.) diluted in PBS for 2 hours at 37 C. Cells incubated with unlabeled mouse monoclonal primary antibodies were then washed 3 times with PBS and further incubated with FITC-labeled secondary goat anti-mouse IgG antibody (Zymed) diluted in PBS, while cells incubated with unlabeled rabbit polyclonal primary antibodies were washed and further incubated for 2 hours at 37 C with goat anti-rabbit IgG (Zymed) diluted in PBS. Following an additional 5 washes with PBS, the cells were examined using an LSM510 confocal laser scanning microscope (Carl Zeiss, Oberkochen, Germany). Negative controls for the method included cells incubated without primary and secondary antibodies as well as cells incubated with secondary antibody alone.

[3] = system: APF activity in normal bladder epithelial cells; test: Inhibition of APF antiproliferative activity in as-APF-treated normal bladder epithelial cells (3H-thymidine); conditions: pretreatment, then as-APF (0.25 or 0.025 μM; 25 nM in FIG. 54), normal and/or IC/PBS bladder cells
Experimental: Explanted cells grown from the biopsies of normal controls were plated on Day 0 at 1.5×10^4 cells/well onto a 96-well cell culture plate (VWR 29442-054), in 150 μL/well MEM containing 10% heat-inactivated FBS, 1% antibiotic/antimycotic solution, and 1% L-glutamine (all from Sigma), serum starved on Day 1, and treated with varying concentrations of D-pipecolic acid diluted in phosphate buffered saline (PBS) for 2 hours at 37° C. in a 5% CO2 atmosphere. […] The cell contents were then harvested and methanol-fixed onto glass fiber filter paper, and the amount of radioactivity incorporated was determined. Significance of the difference in mean values between groups was determined by an analysis of variance.
as §1, with “assay. […]” for “assay.”

CC(=O)NC1C(O[C@@H]2OC(CO)[C@H](O)C(O)C2O)[C@@H](O)C(CO)O[C@@H]1OC(C)[C@H](N)C(=O)NC(C(=O)N1CCCC1C(=O)NC(C)C(=O)N[C@@H](C)C(=O)NC(C(=O)N[C@H](C(=O)NC(C(=O)N[C@@H](C)C(=O)O)C(C)C)C(C)C)C(C)C)C(C)C (stereo in doubt) [Derivative 8, GalGalNAc-TV(D-proline)AAVVVA]
stimulation of IC/PBS cell proliferation ([1]; 1 nM twice weekly, by Day 16 (FIG. 55)): significantly (p<0.05) stimulated IC/PBS cell proliferation | stimulation of IC cell proliferation ([1]; 0.25 μM of each agent, 9, 16, 23, 30 day treatment (FIG. 41)): Optimal stimulation of IC cell proliferation | IC cell proliferation vs untreated controls ([1]; 16 and 30 days of treatment (FIG. 48)): significantly stimulated | expression of tight junction proteins by immunofluorescence confocal microscopy [2]: increased | inhibition of APF antiproliferative activity [3]: blocked APF antiproliferative activity | inhibition of APF antiproliferative activity ([3]; listed as D-proline APF): inhibit the effect of as-APF on normal bladder epithelial cell proliferation; also recorded: inhibited this activity in nanomolar concentrations in a dose-dependent manner
